Source: article PMC2072912 (Purinergic Signalling, 2007)
Read-outs that look alike come from different tables or passages of the source. Values belong to the molecule of their own block, whether it stands above or below them.

Assays:
[1] = biological target: T1, rat adenine receptor (Rattus norvegicus, UniProt Q7TN49); settings: read-out: IC50 previously determined for the rat adenine receptor; cited from earlier work
T1 sequence (Q7TN49 1-304): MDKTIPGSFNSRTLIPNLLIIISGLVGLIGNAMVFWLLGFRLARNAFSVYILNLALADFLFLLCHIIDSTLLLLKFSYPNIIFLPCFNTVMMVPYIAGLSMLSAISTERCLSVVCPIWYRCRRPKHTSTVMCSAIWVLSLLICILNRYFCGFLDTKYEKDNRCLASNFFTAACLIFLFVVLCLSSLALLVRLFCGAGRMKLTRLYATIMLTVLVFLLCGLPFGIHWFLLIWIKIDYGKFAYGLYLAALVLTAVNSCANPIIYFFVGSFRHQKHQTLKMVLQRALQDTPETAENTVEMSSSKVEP

[2] = system: Saccharomyces cerevisiae; assay: [3H]adenine binding to yeast control organism; settings: data not shown
[3] = system: microbial contaminations in Tris-HCl buffer; assay: Radioligand binding to stored; settings: no added protein
[4] = biological target: A. xylosoxidans membrane preparations; assay: [3H]adenine homologous competition, bacterial membrane preparations; type: binding, Achromobacter xylosoxidans; settings: estimated from homologous competition, n = 3
[5] = biological target: T1, rat adenine receptor; settings: read-out: IC50 previously determined for the rat adenine receptor; cited from earlier work; remark: listed apart in the source
[6] = system: mouse adenine receptor; settings: cited from earlier work
[7] = biological target: A. lwoffii (intact bacteria); assay: [3H]adenine competition binding, intact bacteria; parameters: species or system Acinetobacter lwoffii; settings: read-out: binding affinity (IC50); A. lwoffii intact cells
[8] = system: A. lwoffii membrane preparations; assay: [3H]adenine homologous competition, bacterial membrane preparations; type: binding, Acinetobacter lwoffii
[9] = biological target: A. denitrificans (intact bacteria); assay: [3H]adenine competition binding, intact bacteria; parameters: species or system Achromobacter denitrificans; settings: read-out: binding affinity (IC50); A. denitrificans intact cells
[10] = biological target: Achromobacter xylosoxidans (intact bacteria); assay: [3H]adenine competition binding, intact bacteria; settings: for activity at Achromobacter binding sites: A. xylosoxidans binding studies
[11] = system: A. denitrificans membrane preparations; assay: [3H]adenine homologous competition, bacterial membrane preparations; parameters: species or system Achromobacter denitrificans; settings: read-out: binding affinity (IC50)

SMILES: C[C@H]1O[C@@H](n2cnc3c(N)ncnc32)[C@H](O)[C@@H]1O [5′-deoxyadenosine]
IC50 [1]: 823 nM

[3H]adenine binding [2]: no [^3H]adenine binding
specific [3H]adenine binding ([3]; buffer stored 2 weeks at 4°C): 562 ± 19 cpm
specific [3H]adenine binding ([3]; buffer stored 6 weeks at 4°C): approximately 7,000 cpm
SMILES: [3H]c1nc2ncnc(N)c2[nH]1 [[^3H]adenine, [8-^3H]Adenine]

Kd [4]: 5.84 ± 1.12 nM
IC50 [7]: 299 nM
IC50 ([8]; contaminant 3 membrane preparation, versus 10 nM [3H]adenine, n = 1): 2350 nM
IC50 ([8]; read-out: binding affinity (IC50), A. lwoffii membrane preparations): 1000 nM
IC50 [9]: 253 nM
Kd ([10]; estimated from homologous competition, intact bacteria, n = 8): 11 ± 1.2 nM
IC50 ([10]; read-out: IC50 value for the A. xylosoxidans binding site, intact bacteria, versus 10 nM [3H]adenine): 13 nM
IC50 [11]: 2400 nM
SMILES: Nc1ncnc2nc[nH]c12 [Adenine]
IC50 [5]: 29.9 nM
affinity for the mouse adenine receptor [6]: 54.9 nM

SMILES: CCn1cnc2ncnc(N)c21 [7-ethyladenine]
IC50 [5]: 47300 nM

SMILES: Nc1ncnc2nc(Br)[nH]c12 [8-bromoadenine]
IC50 [5]: 17300 nM

activity at Achromobacter binding sites [10]: completely inactive
SMILES: Nc1ncnc2c1ncn2[C@@H]1O[C@H](CO)[C@@H](O)[C@H]1O [Adenosine]

activity at Achromobacter binding sites [10]: completely inactive
SMILES: Nc1nc(N)c2[nH]cnc2n1 [2,6-Diaminopurine]

activity at Achromobacter binding sites [10]: completely inactive
SMILES: Nc1nc(O)nc2nc[nH]c12 [2-Hydroxyadenine]
